From US20180319810A1, “SUBSTITUTED BRIDGED UREA ANALOGS AS SIRTUIN MODULATORS” (GlaxoSmithKline Intellectual Property (No.2) Limited, priority 2014, published 2018)

Molecular target: T1, SIRT1 (Homo sapiens, UniProt Q96EB6)
T1 sequence (Q96EB6 1-747): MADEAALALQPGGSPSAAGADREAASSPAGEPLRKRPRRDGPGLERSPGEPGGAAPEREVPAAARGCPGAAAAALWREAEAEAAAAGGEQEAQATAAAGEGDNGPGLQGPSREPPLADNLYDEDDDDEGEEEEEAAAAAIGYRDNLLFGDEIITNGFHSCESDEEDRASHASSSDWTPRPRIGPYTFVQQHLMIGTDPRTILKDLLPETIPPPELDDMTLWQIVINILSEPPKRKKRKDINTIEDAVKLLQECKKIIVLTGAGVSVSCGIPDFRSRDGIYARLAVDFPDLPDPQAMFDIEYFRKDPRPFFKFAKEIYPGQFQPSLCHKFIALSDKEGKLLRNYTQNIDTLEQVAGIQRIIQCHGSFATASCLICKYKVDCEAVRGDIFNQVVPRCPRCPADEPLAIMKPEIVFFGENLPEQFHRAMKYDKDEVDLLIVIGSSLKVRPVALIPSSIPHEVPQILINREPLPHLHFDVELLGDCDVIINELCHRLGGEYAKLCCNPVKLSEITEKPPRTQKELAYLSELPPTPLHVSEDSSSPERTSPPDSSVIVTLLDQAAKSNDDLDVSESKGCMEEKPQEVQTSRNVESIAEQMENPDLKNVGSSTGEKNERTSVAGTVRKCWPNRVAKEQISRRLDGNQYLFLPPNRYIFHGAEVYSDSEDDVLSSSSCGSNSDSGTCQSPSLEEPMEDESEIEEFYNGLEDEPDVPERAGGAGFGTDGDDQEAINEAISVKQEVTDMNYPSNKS
Experiment: Trp mass spectrometry assay of SIRT1 activation
Assay type: biochemical
Conditions: Trp peptide Ac-R-H-K-K(Ac)-W-NH2 0.5 μM, 120 μM βNAD+, 10 nM SIRT1, 25 min, 25° C.

SMILES	TRP Activity (EC1.5, concentration of compound required to increase SIRT1 activity by 50% over control)	TRP MAX RESP (percent maximum fold activation relative to control)
Cc1nc(-c2cccc(C(F)(F)F)c2)nc2c1N1CCC[C@@H](C1)N2C(=O)Nc1cnc(OC[C@H](O)CO)nc1 [Example 106, (9S)—N-(2-((R)-2,3-dihydroxypropoxy)pyrimidin-5-yl)-4-methyl-2-(3-(trifluoromethyl)phenyl)-8,9-dihydro-6H-5,9-methanopyrimido[4,5-b][1,4]diazocine-10(7H)-carboxamide]	A (EC1.5<1 μM)	A (Fold activation ≥150%)
Cc1nc(-c2cccc(C(F)(F)F)c2)nc2c1N1CC[C@@H](C1)N2C(=O)Nc1cnc(OC[C@H](O)CO)nc1 [Example 55, (8S)—N-(2-((R)-2,3-dihydroxypropoxy)pyrimidin-5-yl)-4-methyl-2-(3-(trifluoromethyl)phenyl)-7,8-dihydro-5,8-methanopyrimido[4,5-b][1,4]diazepine-9(6H)-carboxamide]	B (EC1.5 1-25 μM)	A (Fold activation ≥150%)
C[C@@H](NC(=O)c1ncc2c(n1)N(C(=O)Nc1cnc(OC[C@H](O)CO)cn1)[C@H]1CCCN2C1)C(F)(F)F [Example 69]	B (EC1.5 1-25 μM)	A (Fold activation ≥150%)
O=C(NC1CCCC1)N1c2nc(-c3cccc(C(F)(F)F)c3)ncc2N2CC[C@H]1C2 [Example 52, (8S)—N-cyclopentyl-2-(3-(trifluoromethyl)phenyl)-7,8-dihydro-5,8-methanopyrimido[4,5-b][1,4]diazepine-9(6H)-carboxamide]	B (EC1.5 1-25 μM)	A (Fold activation ≥150%)
C[C@@H](NC(=O)c1ncc2c(n1)N(C(=O)Nc1cc(OC[C@H](O)CO)ccn1)[C@H]1CCCN2C1)C(F)(F)F [Example 64, (9S)—N10-(4-((R)-2,3-dihydroxypropoxy)pyridin-2-yl)-N2-((R)-1,1,1-trifluoropropan-2-yl)-8,9-dihydro-6H-5,9-methanopyrimido[4,5-b][1,4]diazocine-2,10(7H)-dicarboxamide]	A (EC1.5<1 μM)	A (Fold activation ≥150%)
Cc1ccc2c(NC(=O)N3c4nc(C(=O)NC(CO)C(F)(F)F)ncc4N4CCC[C@H]3C4)n[nH]c2n1 (single isomer, unassigned) [Example 68]	B (EC1.5 1-25 μM)	A (Fold activation ≥150%)
O=C(Nc1cccc(OC[C@H](O)CO)n1)N1c2nc(-c3cccc(C(F)(F)F)c3)ncc2N2CC[C@H]1C2 [Example 22, (8S)—N-(6-((R)-2,3-dihydroxypropoxy)pyridin-2-yl)-2-(3-(trifluoromethyl)phenyl)-7,8-dihydro-5,8-methanopyrimido[4,5-b][1,4]diazepine-9(6H)-carboxamide]	A (EC1.5<1 μM)	A (Fold activation ≥150%)
C[C@@H](NC(=O)c1ncc2c(n1)N(C(=O)Nc1ccccn1)[C@H]1CCCN2C1)C(F)(F)F [Example 63, (9S)—N10-(pyridin-2-yl)-N2-((R)-1,1,1-trifluoropropan-2-yl)-8,9-dihydro-6H-5,9-methanopyrimido[4,5-b][1,4]diazocine-2,10(7H)-dicarboxamide]	A (EC1.5<1 μM)	A (Fold activation ≥150%)
O=C(Nc1cnnc(OC[C@H](O)CO)c1)N1c2nc(-c3cccc(C(F)(F)F)c3)ncc2N2CC[C@H]1C2 [Example 44, (8S)—N-(6-((R)-2,3-dihydroxypropoxy)pyridazin-4-yl)-2-(3-(trifluoromethyl)phenyl)-7,8-dihydro-5,8-methanopyrimido[4,5-b][1,4]diazepine-9(6H)-carboxamide]	B (EC1.5 1-25 μM)	A (Fold activation ≥150%)
O=C(Nc1cncc(OC[C@H](O)CO)c1)N1c2nc(-c3cccc(C(F)(F)F)c3)ncc2N2CC[C@H]1C2 [Example 35, (8S)—N-(5-((R)-2,3-dihydroxypropoxy)pyridin-3-yl)-2-(3-(trifluoromethyl)phenyl)-7,8-dihydro-5,8-methanopyrimido[4,5-b][1,4]diazepine-9(6H)-carboxamide]	B (EC1.5 1-25 μM)	A (Fold activation ≥150%)
Cc1ccc2c(NC(=O)N3c4nc(C(=O)N[C@H](C)C(F)(F)F)ncc4N4CCC[C@H]3C4)n[nH]c2n1 [Example 72, (9S)—N10-(6-methyl-1H-pyrazolo[3,4-b]pyridin-3-yl)-N2-((R)-1,1,1-trifluoropropan-2-yl)-8,9-dihydro-6H-5,9-methanopyrimido[4,5-b][1,4]diazocine-2,10(7H)-dicarboxamide]	A (EC1.5<1 μM)	A (Fold activation ≥150%)
O=C(Nc1cnnc(OC[C@H](O)CO)c1)N1c2nc(-c3cccc(C(F)(F)F)c3)ncc2N2CCC[C@H]1C2 [Example 110, (9S)—N-(6-((R)-2,3-dihydroxypropoxy)pyridazin-4-yl)-2-(3-(trifluoromethyl)phenyl)-8,9-dihydro-6H-5,9-methanopyrimido[4,5-b][1,4]diazocine-10(7H)-carboxamide]	A (EC1.5<1 μM)	A (Fold activation ≥150%)
Cc1nc(-c2cccc(C(F)(F)F)c2)nc2c1N1CC[C@@H](C1)N2C(=O)Nc1cncc(OC[C@H](O)CO)c1 [Example 45, (8S)—N-(5-((R)-2,3-dihydroxypropoxy)pyridin-3-yl)-4-methyl-2-(3-(trifluoromethyl)phenyl)-7,8-dihydro-5,8-methanopyrimido[4,5-b][1,4]diazepine-9(6H)-carboxamide]	A (EC1.5<1 μM)	A (Fold activation ≥150%)
Cc1ncc(-c2ccnc(NC(=O)N3c4nc(C(=O)N[C@H](C)C(F)(F)F)nc(C)c4N4CCC[C@H]3C4)c2)o1 [Example 71, (9S)-4-methyl-N10-(4-(2-methyloxazol-5-yl)pyridin-2-yl)-N2-((R)-1,1,1-trifluoropropan-2-yl)-8,9-dihydro-6H-5,9-methanopyrimido[4,5-b][1,4]diazocine-2,10(7H)-dicarboxamide]	A (EC1.5<1 μM)	A (Fold activation ≥150%)
O=C(Nc1cncc(OC[C@@H](O)CO)c1)N1c2nc(-c3cccc(C(F)(F)F)c3)ncc2N2CCC[C@H]1C2 [Example 94, (9S)—N-(5-((S)-2,3-dihydroxypropoxy)pyridin-3-yl)-2-(3-(trifluoromethyl)phenyl)-8,9-dihydro-6H-5,9-methanopyrimido[4,5-b][1,4]diazocine-10(7H)-carboxamide]	A (EC1.5<1 μM)	A (Fold activation ≥150%)
Cc1nc(C(=O)N[C@H](C)C(F)(F)F)nc2c1N1CC[C@@H](C1)N2C(=O)Nc1cc(OC[C@H](O)CO)ccn1 [Example 1, (8S)—N9-(4-((R)-2,3-dihydroxypropoxy)pyridin-2-yl)-4-methyl-N2-((R)-1,1,1-trifluoropropan-2-yl)-7,8-dihydro-5,8-methanopyrimido[4,5-b][1,4]diazepine-2,9(6H)-dicarboxamide]	A (EC1.5<1 μM)	A (Fold activation ≥150%)
C[C@@H](NC(=O)c1ncc2c(n1)N(C(=O)Nc1nccc(OC[C@@H](O)CO)n1)[C@H]1CCCN2C1)C(F)(F)F [Example 76, (9S)—N10-(4-((S)-2,3-dihydroxypropoxy)pyrimidin-2-yl)-N2-((R)-1,1,1-trifluoropropan-2-yl)-8,9-dihydro-6H-5,9-methanopyrimido[4,5-b][1,4]diazocine-2,10(7H)-dicarboxamide]	B (EC1.5 1-25 μM)	A (Fold activation ≥150%)
